Consider twelve compounds from patent US7435742B2, “Quinuclidine derivatives and pharmaceutical compositions containing the same” (Laboratorios Almirall S.A., priority 2002, dated 2008).

As a reminder, the melting point is the temperature of the solid-liquid transition. Compound `C=CC[N+]12CCC(CC1)[C@@H](OC(=O)N(Cc1cccs1)c1ccccc1)C2.[Br-]` registered a melting point of 110 °C.
Take `C[N+]12CCC(CC1)[C@@H](OC(=O)N(CCc1ccccc1)c1ccccc1)C2.[Br-]`: the melting point was determined as 203 °C.
The figure for `O=C(O[C@H]1C[N+]2(CCOc3ccccc3)CCC1CC2)N(CC1CCCCC1)c1ccccc1F.[Br-]` is 73.1 to 74.5 °C.
`Cc1cccc(N(Cc2cc(F)c(F)cc2F)C(=O)O[C@H]2C[N+]3(CCOc4ccccc4)CCC2CC3)c1.[Br-]` showed a melting point of 137.3 to 139.1 °C.
For the compound `CCCCN(C(=O)O[C@H]1C[N+]2(CCCc3cccs3)CCC1CC2)c1ccccc1.[Br-]`, the melting point turned out to be 127 °C.
Next, `O=C(O[C@H]1C[N+]2(CCOc3ccccc3)CCC1CC2)N(Cc1cccs1)c1ccccc1.[Br-]`: 133 °C; `O=C(O[C@H]1C[N+]2(CCOc3ccccc3)CCC1CC2)N(Cc1cc(F)c(F)c(F)c1)c1cccc(F)c1.[Br-]`: 173.9 to 175.5 °C.
With `O=C(O[C@H]1C[N+]2(CCCc3cccs3)CCC1CC2)N(Cc1ccccc1)c1ccccc1.[Br-]`, the melting point was 95 °C.
In turn, `O=C(O[C@H]1C[N+]2(CCCc3ccccc3)CCC1CC2)N(CC1CCCCC1)c1ccccc1F.[Br-]` returned a melting point of 73.3 to 74.1 °C.
In turn, `O=C(O[C@H]1C[N+]2(CCOc3ccccc3)CCC1CC2)N(Cc1ccccc1)c1ccccc1.[Br-]` came in with a melting point of 117 °C.
With `O=C(O[C@H]1C[N+]2(CCCc3cccs3)CCC1CC2)N(Cc1cccs1)Cc1cccs1.[Br-]`, the melting point was 143 °C.
With `CCCCN(C(=O)O[C@H]1C[N+]2(CCCOc3ccc(F)cc3)CCC1CC2)c1ccccc1.[Cl-]`, the melting point was 126 °C.
